Data on seven molecules can be found in PMC9457810, “Synthesis, Structure and Antileishmanial Evaluation of Endoperoxide–Pyrazole Hybrids” (Molecules, 2022).

Where a name gives a salt, the structure may show the parent alone.

One may read the CC50 as the concentration at which the toxic effect on the cells reaches its halfway point. As usually defined, the IC50 is the point on the concentration scale where inhibition reaches its midpoint. What is called melting point is the temperature, or range, at which the solid turns liquid.

For one series, the system named is THP-1 cell line. Kind of series: In vitro cytotoxicity assessment in THP-1 cell line (MTT). The following applies: THP-1 cells, 48 h, MTT; at least three independent assays; read-out: Cytotoxicity CC50 ± SEM. It counts as cell-based, human. Here is the method: (§1) THP-1 (ATCC® TIB-202TM) human acute monocytic leukemic cell line was obtained from DSMZ, Germany and cultured in RPMI 1640 (Sigma, Darmstadt, Germany) supplemented with 10% (v/v) FBS, 1% (v/v) penicillin-streptomycin (Sigma), and L-glutamine 200 mM (Sigma) at 37 °C, 5% CO2.
(§2) THP-1 cell line was used to calculate the endoperoxide–pyrazole hybrids’ half-maximal cytotoxic concentration (CC50). THP-1 was plated at a final density of 5 × 10^5 cells/mL, in 96-well flat bottom culture plates (VWR), using six different concentrations of the compounds (OZ1, OZ2, T1, T2 and PIR: 800, 400, 200, 100, 50, 25 µM) and amphotericin B (10, 5, 2.5, 1.25, 0.625, 0.313 µM). A blank (RPMI medium alone) and an untreated control (parasites with RPMI medium plus 1% DMSO as vehicle solution) were also included. All the compounds were plated out in quadruplicate and incubated for 48 h at 37 °C ± 1 °C, 5% CO2.
(§3) Following the incubation period, 20 µL per well of MTT was added as described in Section 3.5.2. After absorbance readings, the CC50 values of each compound were determined with GraphPad Prism V 9.0 (Dotmatics, San Diego, CA, USA) as previously described. At least three independent assays were performed.

The test system of series [1] is L. tropica promastigotes. In words: Leishmania promastigotes in vitro susceptibility (MTT), L. tropica. It counts as cell-based. Conditions: Leishmania tropica, 48 h, at least three independent assays, read-out: Promastigotes Susceptibility IC50 ± SEM, L. tropica.
A short description of series [2]: Solubility in culture media (observation). The format is physicochemical. The text has this: Calculated intrinsic aqueous solubility (ClogS) values show similar values between trioxolanes (1.20–1.38) and tetraoxanes (1.18–1.21). However, the poor solubility of dispiro 4′’-substituted tetraoxanes may be associated to their structural symmetry. A decrease in molecular symmetry has been correlated to better physicochemical properties, such as absorption and solubility, resulting in enhanced systemic exposure to a drug. So it is anticipated that 3′’-substituted analogues could overcome this solubility issue. Therefore, future optimization to 3”-substituted analogues should be considered. Likewise, conversion of the compounds into water-soluble salts, as well as encapsulation of the endoperoxide structures in delivery systems such as liposomes, could represent alternative strategies to solve the solubility issue.

Series [3] deals with L. infantum promastigotes. Kind of series: Leishmania promastigotes in vitro susceptibility (MTT), L. infantum. It counts as cell-based. The following applies: Leishmania infantum, 48 h, at least three independent assays, read-out: Promastigotes Susceptibility IC50 ± SEM, L. infantum.
The next series concerns L. infantum. Further details: method as in PMID 26014947. Conditions: given in Figure 1A; cited from earlier work.
The subject of another series is L. major. On the set-up: method as in PMID 30215271. Conditions: given in Figure 1A; cited from earlier work.
Series [4] in a line: In vitro cytotoxicity assessment in THP-1 cell line (MTT). It counts as cell-based, human. Conditions: human, THP-1 cells, 48 h, MTT; at least three independent assays; read-out: Cytotoxicity CC50 ± SEM. Here is the method:
as §1, §2, §3

In the next series the test system is L. donovani. Further details: method as in PMID 31979089. Conditions: given in Figure 1A; cited from earlier work.
For series [5], the system named is L. tropica promastigotes. In words: Morphometric analysis of L. tropica promastigotes (optical microscopy, Giemsa). It counts as cell-based, Leishmania tropica. The following applies: 48 h; OZ1 300 µM, OZ2 200 µM, amphotericin B 0.62 µM. Here is the method: To detect morphological alterations, at the end of the incubation period (48 h), 30 µL of the parasite’s suspension were collected from different treatment concentrations of each compound to prepare smears on glass slides, fixed with methanol, and stained with 5% (v/v) Giemsa (Sigma). Stained slides were examined with bright field in an inverted microscope (Eclipse 80i Nikon, Tokyo, Japan) with 1000× amplification, and images were captured with a Nikon DS-Ri1 camera. Image J (version 1.53k) was used to measure promastigote body and flagellum size of at least 30 parasite samples.
Data were expressed as mean ± standard error of the mean (SEM), and statistical analysis was performed with one-way ANOVA (Bonferoni’s multiple comparisons test) to determine whether differences between means relatively to untreated control were significant at different levels (p < 0.05, p < 0.01, p < 0.001).

The subject of series [6] is intracellular amastigotes of L. infantum. Kind of series: Intracellular amastigotes susceptibility in THP-1-derived macrophages (infection index). It counts as cell-based, Leishmania infantum. The method, then: The in vitro intracellular amastigote assay was performed using a THP1 cell line maintained in complete RPMI at 37 °C, 5% CO2. After 24 h differentiation of 5 × 10^5 cells/mL into macrophages in sterile 16-chamber LabTek slides (Thermo Scientific, Waltham, MA, USA) with 25 ng mL^−1 phorbol myristic acid (PMA, Sigma), cells were washed once with warm RPMI to remove non-differentiated and non-adherent cells and further infected with 5 × 10^6 promastigotes/mL in a 10:1 parasite–macrophage ratio for another 24 h. After this period, slides were gently washed once with warm RPMI to remove non-internalised promastigotes. The compounds 2o, 2t, OZ1•HCl, OZ1•MsOH, and OZ1•TsOH at concentrations ranging 400 µM to 50 µM were added, and the slides were further incubated at 37 °C, 5% CO2 for 72 h. After this period, cells were washed with warm PBS, fixed with methanol (Sigma) and stained with Giemsa 5% (Sigma). AmB was used as positive control, and macrophages cultivated in RPMI medium and DMSO (0.5% v/v) were used as negative control. The infection index was determined by multiplying the percentage of infected cells and the number of amastigotes per infected cell as previously described. The results represent the average of two experiments. The IC50 for each compound was calculated by fitting the data as a non-linear regression with variable slope using a dose–response inhibitory model in the GraphPad Prism V 8.0 (Dotmatics, San Diego, CA, USA) program.
Selectivity index (SI) was determined for each compound as the quotient between the cytotoxicity in cell lines (CC50) and the inhibitory concentration (IC50) (SI = CC50 in mammalian cells/IC50 L. infantum).

For `Nc1ccnn1C(=O)C1CCC2(CC1)OOC1(OO2)C2CC3CC(C2)CC1C3` (stereo not shown) [T1, (5-Amino-1H-pyrazol-1-yl)(dispiro[cyclohexane-1,3′-[1,2,4,5]tetraoxane-6′,2″-tricyclo-[3.3.1.1^3,7]-decan]-4-yl)methanone], the CC50 in the series with THP-1 cell line was above 800 µM. Further, the 50% inhibitory concentration (IC50) (in the series on L. tropica promastigotes [1]; in series [3]) was above 400 µM throughout. Besides, the “Solubility in M199 and RPMI medium” value in series [2] is listed as “low solubility”.
As for `Nc1ccnn1C(=O)C1CCC2(CC1)OOC1(OO2)C2CC3CC(C2)CC1C3` (stereo not shown) (as salt: tosylate) [T1•TsOH, (5-Amino-1H-pyrazol-1-yl) (dispiro[cyclohexane-1,3′-[1,2,4,5]tetraoxane-6′,2″-tricyclo-[3.3.1.1^3,7]-decan]-4-yl) methanone p-tosylate], the melting point is 156 °C (dec.).
Take `NCC1CCC2(CC1)OOC1(O2)C2CC3CC(C2)CC1C3` (stereo not shown) [LC95]: the 50% inhibitory concentration (IC50) in the series on L. infantum is 9.35 ± 3.64 µM.
Consider `COc1ccc(-c2cn(-c3ccccc3)nc2/C=N/N=C/c2c(C)nn(-c3ccccc3)c2Cl)cc1` [3i], for which the IC50 in the series with L. major was 0.74 ± 0.1 µM.
For `Nc1ccn(C(=O)C2CCC3(CC2)OOC2(OO3)C3CC4CC(C3)CC2C4)n1` (stereo not shown) [T2, (3-Amino-1H-pyrazol-1-yl)(dispiro[cyclohexane-1,3′-[1,2,4,5]tetraoxane-6′,2″-tricyclo[3.3.1.1^3,7]decan]-4-yl)methanone], the CC50 at 48 h in series [4] is above 800 µM. For the same molecule, in [2], the “Solubility in M199 and RPMI medium” value is listed as “low solubility”.
In the case of `O=C1CCC2(CC1)OOC1(OO2)C2CC3CC(C2)CC1C3` [LC140], the IC50 in the series on L. donovani is 2.52 ± 0.65 µM.
For `C[C@@H]1[C@H](O)[C@@H](C)/C=C/C=C/C=C/C=C/C=C/C=C/C=C/[C@H](O[C@@H]2O[C@H](C)[C@@H](O)[C@H](N)[C@@H]2O)C[C@@H]2O[C@](O)(C[C@@H](O)C[C@@H](O)[C@H](O)CC[C@@H](O)C[C@@H](O)CC(=O)O[C@H]1C)C[C@H](O)[C@H]2C(=O)O` [AmB, Amphotericin B, reference compound], the CC50 at 48 h in series [4] stood at 23 ± 3 µM. Moreover, the concentration for half-maximal inhibition (IC50) with L. tropica promastigotes [1] amounted to 0.3 ± 0.1 µM; in series [3], 0.2 ± 0.01 µM; in series [6] (Leishmania infantum, Macrophage, 72 h, THP-1-derived macrophages, 72 h, infection index, two independent assays, read-out: Intracellular Amastigote Susceptibility IC50 ± SEM, L. infantum), 0.08 ± 0.05 µM. For the same molecule, the “Body size of L. tropica promastigotes” value in the series on L. tropica promastigotes [5] is given as 6.463 ± 1.874 µm. Moreover, the “SI (selectivity index)” value in [6] (SI for amastigote forms = CC50 THP-1 / IC50 L. infantum) worked out at 290.
